# In PubChem BioAssay (NCI):
#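 Tested at 5 concentrations; 48 h exposure; 96-well plates; endpoints linearly interpolated, else capped at highest concentration. TGI denotes the concentration required for complete inhibition of growth.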
# Columns and labels:
# Assay in all cases: NCI anticancer screen, dose series, 48 h
# [1] = tested on: OVCAR-8 ovarian
# [2] = tested on: UACC-257 melanoma
# [3] = tested on: EKVX NSCLC
# [4] = tested on: ACHN renal
# [5] = tested on: NCI-H226 lung
# [6] = tested on: SK-OV-3 ovarian
# [7] = tested on: SN12C renal
# [8] = tested on: OVCAR-4 ovarian
# [9] = tested on: HOP-62 NSCLC
# [10] = tested on: MDA-MB-435
# [11] = tested on: MOLT-4 leukemia
# [12] = tested on: NCI-H522 lung
# [13] = tested on: MALME-3M melanoma
# [14] = tested on: MDA-N
# [15] = tested on: LOX IMVI melanoma
# [16] = tested on: SW-620 colon
# [17] = tested on: HS 578T breast
# [18] = tested on: NCI/ADR-RES ovarian
# [19] = tested on: HL-60(TB) leukemia
# [20] = tested on: MCF7 breast
# [21] = tested on: HCC-2998 colon
# [22] = tested on: HCT-116 colon
# [23] = tested on: SK-MEL-2 melanoma
# [24] = tested on: UACC-62 melanoma
# [25] = tested on: CCRF-CEM leukemia
# [26] = tested on: U251 CNS
# [27] = tested on: NCI-H23 lung
# [28] = tested on: RPMI-8226 leukemia
# [29] = tested on: MDA-MB-231 breast
# [30] = tested on: K-562 leukemia
# [31] = tested on: DU-145 prostate
# [32] = tested on: A498 renal
# [33] = tested on: IGROV1 ovarian
# [34] = tested on: SR leukemia
# [35] = tested on: RXF 393 renal
# [36] = tested on: CAKI-1 renal
# [37] = tested on: TK-10 renal
# [38] = tested on: HT29 colon
# [39] = tested on: UO-31 renal
# [40] = tested on: SNB-75 CNS
# [41] = tested on: 786-0 renal
# [42] = tested on: HCT-15 colon
# [43] = tested on: OVCAR-5 ovarian
# [44] = tested on: SF-268 CNS
# [45] = tested on: PC-3 prostate
# [46] = tested on: SF-295 CNS
# [47] = tested on: BT-549 breast
# [48] = tested on: KM12 colon
# [49] = tested on: SK-MEL-28 melanoma
# [50] = tested on: OVCAR-3 ovarian
# [51] = tested on: M14 melanoma
# [52] = tested on: A549 NSCLC
# [53] = tested on: T-47D breast
# [54] = tested on: SNB-19 CNS
# [55] = tested on: COLO 205 colon
# [56] = tested on: SF-539 CNS
# [57] = tested on: HOP-92 NSCLC
# [58] = tested on: SK-MEL-5 melanoma
# [59] = tested on: NCI-H460 lung
smiles,measurement,setting,value
COC(=O)C1=C(C)NC2=C(C(=O)c3ccccc32)C1c1cn(-c2ccccc2)nc1-c1ccccc1 (stereo not drawn),TGI,[1],> 100 µM
same,TGI,[2],> 100 µM
same,TGI,[3],> 100 µM
same,TGI,[4],> 100 µM
same,TGI,[5],> 100 µM
same,TGI,[6],> 100 µM
same,TGI,[7],> 100 µM
same,TGI,[8],> 100 µM
same,TGI,[9],> 100 µM
same,TGI,[10],> 100 µM
same,TGI,[11],44.6 µM
same,TGI,[12],> 100 µM
same,TGI,[13],> 100 µM
same,TGI,[14],> 100 µM
same,TGI,[15],> 100 µM
same,TGI,[16],> 100 µM
same,TGI,[17],> 100 µM
same,TGI,[18],> 100 µM
same,TGI,[19],> 100 µM
same,TGI,[20],> 100 µM
same,TGI,[21],> 100 µM
same,TGI,[22],> 100 µM
same,TGI,[23],> 100 µM
same,TGI,[24],> 100 µM
same,TGI,[25],> 100 µM
same,TGI,[26],> 100 µM
same,TGI,[27],> 100 µM
same,TGI,[28],> 100 µM
same,TGI,[29],> 100 µM
same,TGI,[30],> 100 µM
same,TGI,[31],> 100 µM
same,TGI,[32],> 100 µM
same,TGI,[33],> 100 µM
same,TGI,[34],> 21.6 µM
same,TGI,[35],> 100 µM
same,TGI,[36],> 100 µM
same,TGI,[37],> 100 µM
same,TGI,[38],> 30.5 µM
same,TGI,[39],> 100 µM
same,TGI,[40],> 100 µM
same,TGI,[41],> 100 µM
same,TGI,[42],> 100 µM
same,TGI,[43],> 100 µM
same,TGI,[44],> 100 µM
same,TGI,[45],> 100 µM
same,TGI,[46],> 100 µM
same,TGI,[47],> 100 µM
same,TGI,[48],> 100 µM
same,TGI,[49],> 100 µM
same,TGI,[50],> 100 µM
same,TGI,[51],> 100 µM
same,TGI,[52],> 100 µM
same,TGI,[53],> 100 µM
same,TGI,[54],> 100 µM
same,TGI,[55],> 100 µM
same,TGI,[56],> 100 µM
same,TGI,[57],> 100 µM
same,TGI,[58],> 100 µM
O=c1cnn(C/C=C/CBr)c(=O)[nH]1,TGI,[1],54 µM
same,TGI,[2],26.9 µM
same,TGI,[3],39.2 µM
same,TGI,[4],37.1 µM
same,TGI,[5],34.8 µM
same,TGI,[7],41.6 µM
same,TGI,[59],36.5 µM
same,TGI,[8],48 µM
same,TGI,[9],33.2 µM
same,TGI,[10],33.7 µM
same,TGI,[11],50.1 µM
same,TGI,[12],22.9 µM
same,TGI,[13],32 µM
same,TGI,[14],33.3 µM
same,TGI,[15],67.4 µM
same,TGI,[16],28.8 µM
same,TGI,[17],> 100 µM
same,TGI,[18],58.1 µM
same,TGI,[19],26.5 µM
same,TGI,[20],36 µM
same,TGI,[21],34.7 µM
same,TGI,[23],42.2 µM
same,TGI,[25],47.6 µM
same,TGI,[26],28.8 µM
same,TGI,[28],49.5 µM
same,TGI,[29],45.6 µM
same,TGI,[30],70.6 µM
same,TGI,[31],43.8 µM
same,TGI,[32],31.7 µM
same,TGI,[33],37.7 µM
same,TGI,[34],42.8 µM
same,TGI,[35],31.9 µM
same,TGI,[36],25.6 µM
same,TGI,[38],29.2 µM
same,TGI,[39],28.8 µM
same,TGI,[40],33.4 µM
same,TGI,[42],39.2 µM
same,TGI,[43],31.2 µM
same,TGI,[44],39.3 µM
same,TGI,[45],36.4 µM
same,TGI,[47],19.4 µM
same,TGI,[48],32.7 µM
same,TGI,[49],41.9 µM
same,TGI,[50],64.2 µM
same,TGI,[51],35.9 µM
same,TGI,[52],33.9 µM
same,TGI,[53],57 µM
same,TGI,[54],79.7 µM
same,TGI,[55],41.9 µM
same,TGI,[56],31.6 µM
same,TGI,[57],28.7 µM
same,TGI,[58],26.6 µM
Nc1c2c(nc3cc(F)c(F)cc13)CCC2,TGI,[1],> 100 µM
same,TGI,[2],> 100 µM
same,TGI,[3],> 100 µM
same,TGI,[4],> 100 µM
same,TGI,[5],> 100 µM
same,TGI,[6],> 100 µM
same,TGI,[7],> 100 µM
same,TGI,[59],54 µM
same,TGI,[8],> 100 µM
same,TGI,[9],> 100 µM
same,TGI,[10],> 100 µM
same,TGI,[11],> 100 µM
same,TGI,[12],> 100 µM
same,TGI,[13],> 100 µM
same,TGI,[14],> 100 µM
same,TGI,[15],> 100 µM
same,TGI,[16],> 100 µM
same,TGI,[17],> 100 µM
same,TGI,[18],> 100 µM
same,TGI,[19],10.1 µM
same,TGI,[20],> 100 µM
same,TGI,[21],35.1 µM
same,TGI,[22],> 100 µM
same,TGI,[23],> 100 µM
same,TGI,[24],> 100 µM
same,TGI,[26],> 100 µM
same,TGI,[27],> 100 µM
same,TGI,[28],> 100 µM
same,TGI,[29],> 100 µM
same,TGI,[30],> 100 µM
same,TGI,[31],> 100 µM
same,TGI,[32],61.2 µM
same,TGI,[33],> 100 µM
same,TGI,[34],> 100 µM
same,TGI,[35],> 100 µM
same,TGI,[36],> 100 µM
same,TGI,[37],77.7 µM
same,TGI,[38],> 100 µM
same,TGI,[39],20.7 µM
same,TGI,[40],> 100 µM
same,TGI,[41],> 100 µM
same,TGI,[42],> 100 µM
same,TGI,[43],> 100 µM
same,TGI,[44],> 100 µM
same,TGI,[45],> 100 µM
same,TGI,[46],> 100 µM
same,TGI,[47],> 100 µM
same,TGI,[48],> 100 µM
same,TGI,[49],> 100 µM
same,TGI,[50],> 100 µM
same,TGI,[51],> 100 µM
same,TGI,[52],> 100 µM
same,TGI,[53],> 100 µM
same,TGI,[54],> 100 µM
same,TGI,[55],> 100 µM
same,TGI,[56],> 100 µM
same,TGI,[57],> 100 µM
same,TGI,[58],> 100 µM
